{"source": "patent US20070274947A1", "about": "“Antisense Oligonucleotides Directed to Ribonucleotide Reductase R1 and Uses Thereof in the Treatment of Cancer” (priority 2003, published 2007)", "key": {"[1]": {"tested_on": "MDA-CDDP-S4 human in vivo-selected Cisplatin-resistant breast adenocarcinoma cells", "assay": "Cisplatin-resistant breast adenocarcinoma MDA-CDDP-S4 growth in SCID mice", "conditions": "SCID mice, fat pad; SEQ ID NO:1 10 mg/kg every other day; Cisplatin 4 mg/kg, Taxol 10 mg/kg i.v. weekly for three weeks", "description": "MDA-CDDP-S4 human in vivo-selected Cisplatin-resistant breast adenocarcinoma cells MDA231/CDDPs4) (4×10^6 cells in 100 μl of PBS) were injected into the fat pad (inside of right leg) of 6-7 weeks old female SCID mice. After the size of tumor reached an approximate volume of 100 mm^3, 7-9 days post tumor cell injection, SEQ ID NO:1 was administered by bolus infusion into the tail vein every other day at 10 mg/kg. Control animals received saline alone for the same period. Antitumor effect of SEQ ID NO:1 was further compared to that of Cisplatin or Taxol alone (FIG. 14A) and in combination as indicated in the FIGS. 14B, 14C and 14D. Cisplatin was administered intravenously once a week for three weeks at a dose of 4 mg/kg. Taxol was administered intravenously once a week for three weeks at a dose of 10 mg/kg. Antitumor activities were estimated by the inhibition of tumor volume, which was measured with caliper and each point represents mean tumor volume calculated from 10 animals per experimental group (FIG. 14C). At the end of the study animals were sacrificed, tumor weights taken and mean tumor weights are indicated. […] As expected, treatment with Cisplatin during the same period was ineffective against Cisplatin-resistant tumor."}, "[2]": {"tested_on": "MDA-MB435-To.1 human Taxol-resistant breast adenocarcinoma cells", "assay": "Taxol-resistant breast adenocarcinoma MDA-MB435-To.1 growth in SCID mice", "type": "in vivo", "description": "MDA-MB435-To.1 human Taxol-resistant breast adenocarcinoma cells (4×10^6 cells in 100 μl of PBS) were injected into the fat pad (inside of right leg) of 6-7 weeks old female SCD mice. After the size of tumor reached an approximate volume of 100 mm^3, 20 days post tumor cell injection, SEQ ID NO:1 was administered by bolus infusion into the tail vein every other day at 10 mg/kg 15 times. Control animals received saline alone for the same period. Antitumor effect of SEQ ID NO:1 was further compared to that of Cisplatin or Taxol alone (FIG. 15A). Cisplatin was administered intravenously once a week for four weeks at a dose of 4 mg/kg. Taxol was administered intravenously once a week for four weeks at a dose of 20 mg/kg. Antitumor activities were estimated by the inhibition of tumor volume, which was measured with caliper (FIG. 15B). Each point represents mean tumor volume calculated from 9-10 animals per experimental group. […] As expected, treatment with Taxol during the same period was ineffective against Taxol-resistant tumor.\nMDA-MB435-To.1 human Taxol-resistant breast adenocarcinoma cells (4×10^6 cells in 100 μl of PBS) were injected into the fat pad (inside of right leg) of 6-7 weeks old female CB-17 SCID mice. After the size of tumor reached an approximate volume of 100 mm^3, 17 days post tumor cell injection, SEQ ID NO:1 was administered by bolus infusion into the tail vein every other day at 10 mg/kg. Control animals received saline alone for the same period. Antitumor effect of SEQ ID NO:1 was compared to that of Cisplatin alone and in combination. Cisplatin was administered intravenously once a week for four weeks at a dose of 4 mg/kg. Antitumor activities were estimated by the inhibition of tumor volume, which was measured with caliper (FIG. 15B). Each point represents mean tumor volume calculated from 10 animals per experimental group. At the end of the study the animals were sacrificed and tumors weighed (FIG. 15C)."}, "[3]": {"tested_on": "Human taxol-resistant promyelocytic leukemia cells (HL-60)", "assay": "Taxol-resistant promyelocytic leukemia (HL-60) growth in SCID mice", "type": "in vivo", "conditions": "SEQ ID NO:1 10 mg/kg i.v. every other day, taxol 10 mg/kg i.p. once a week", "description": "Human taxol-resistant promyelocytic leukemia cells (HL-60) (7×10^6 cells in 100 μl of PBS) were injected into the right flank of 6-7 weeks old female SCID mice. After the size of tumor reached an approximate volume of 100 mm^3, 10 days post tumor cell injection, SEQ ID NO:1 was administered by bolus infusion into the tail vein every other day at 10 mg/kg. Control animals received saline alone for the same period. The anti-tumor effect of SEQ ID NO:1 was further compared to that of taxol. Taxol was administered i.p. once a week at a dose of 10 mg/kg. Anti-tumor activity was estimated by the inhibition of tumor volume, which was measured with caliper (FIG. 17A). Each point represents mean tumor volume calculated from 10 animals per experimental group. In addition animals were sacrificed and tumor weights taken at the end of the study."}, "[4]": {"tested_on": "HT-29 human colon cancer cells", "assay": "HT-29 colon tumor growth in CD-1 nude mice", "type": "in vivo", "conditions": "SEQ ID NO:1 10 mg/kg every other day", "description": "A. HT-29 human colon cancer cells (3×10^6 cells in 100 μl of PBS) were subcutaneously injected into the right flank of 6-7 weeks old female CD-1 nude mice. After the size of tumor reached an approximate volume of 50 mm^3, 4 days post tumor cell injection, SEQ ID NO:1 was administered by bolus infusion into the tail vein every other day at 10 mg/kg. Control animals received saline alone for the same period. Antitumor effect of SEQ ID NO:1 was further compared to that of mitomycin C alone or that of SEQ ID NO:1 in combination with mitomycin C. Mitomycin C was administered intravenously at days 4, 11 and 18 with a dose of 3.5 mg/kg/week, one hour after the treatments with SEQ ID NO:1. All treatments were stopped at day 22. A day after the last treatment, tumors were excised from the animals and their weights were measured (FIG. 13A). […] The delay in tumor growth achieved with SEQ.\nB. HT-29 human colon cancer cells (3×10^6 cells in 100 μl of PBS) were subcutaneously injected into the right flank of 5-6 week old female CD-1 nude mice. After the size of tumor reached an approximate volume of 100 mm^3, 7 days post tumor cell injection, SEQ ID NO:1 was administered by bolus infusion into the tail vein every other day at 10 mg/kg. Control animals received saline alone for the same period. Antitumor effect of SEQ ID NO:1 was further compared to that of CPT-11 alone or that of SEQ ID NO:1 in combination with CPT-11. CPT-11 was administered intraperitoneally for 5 days in a row from day 7-12 with a dose of 20 mg/kg in 100 μl saline. All treatments were stopped at day 32. A day after the last treatment, tumors were excised from the animals and their weights were measured (FIG. 13B)."}, "[5]": {"tested_on": "DU145 human prostatic cancer cells", "assay": "DU145 prostate tumor growth in SCID mice", "type": "in vivo", "description": "DU145 human prostatic cancer cells (1×10^7 cells in 100 μl of PBS) were subcutaneously injected into the right flank of 6-7 week old male SCID mice. After the size of the tumors reached an approximate volume of 50 mm^3, 13 days post tumor cell injection, SEQ ID NO:1 was administered by bolus infusion into the tail vein every other day at 10 mg/kg. Control animals received saline alone for the same period. Treatments lasted for 30 days thereafter. Antitumor activities were estimated by the inhibition of tumor volume, which was measured with a caliper on nine different occasions over 30-day period. Each point represents mean tumor volume calculated from 5 animals per experimental group.\nIn both experiments, DU145 human prostatic cancer cells (1×10^7 cells in 100 μl of PBS) were subcutaneously injected into the right flank of 6-7 weeks old male SCID mice. After the size of tumor reached an approximate volume of 50 mm^3, 13 (upper panel) or 11 (lower panel) days post tumor cell injection, SEQ ID NO:1 was administered by bolus infusion into the tail vein every other day at 10 mg/kg 15 times (upper panel) or 14 times (lower panel), respectively. Control animals received saline alone for the same period. Antitumor effect of SEQ ID NO:1 was further compared to that of mitoxantrone (novantrone®) alone or in combination. Mitoxantrone was administered intravenously once at the beginning of the treatments at a dose of 2 mg/kg (upper panel) or once a week for four weeks at a reduced dose of 0.8 mg/kg (lower panel). All treatments were stopped at day 42 (upper panel) or 38 (lower panel), respectively. A day after the last treatment, tumors were excised from the animals and their weights were measured."}, "[6]": {"conditions": "first experiment, start 20 days post injection, SEQ ID NO:1 10 mg/kg 15 times, Cisplatin 4 mg/kg, Taxol 20 mg/kg weekly for four weeks"}}}
{"smiles": "N.N.[Cl][Pt][Cl]", "note": "[Cisplatin, reference compound]", "values": [{"measurement": "tumor weight / tumor growth", "setting": "[1]", "value": "ineffective"}, {"measurement": "tumor weight / tumor growth", "setting": "[2]; [6]", "value": "inhibitory effects"}, {"measurement": "tumor weight / tumor growth", "setting": "[2]; second experiment, CB-17 SCID mice, start 17 days post injection, SEQ ID NO:1 10 mg/kg every other day, Cisplatin 4 mg/kg weekly", "value": "inhibitory effects"}]}
{"smiles": "CC(=O)O[C@H]1C(=O)[C@@]2(C)[C@H]([C@H](OC(=O)c3ccccc3)[C@]3(O)C[C@H](OC(=O)[C@H](O)[C@@H](NC(=O)c4ccccc4)c4ccccc4)C(C)=C1C3(C)C)[C@]1(OC(C)=O)CO[C@@H]1C[C@@H]2O", "note": "[Taxol, Paclitaxel, reference compound]", "values": [{"measurement": "tumor weight / tumor growth", "setting": "[1]", "value": "inhibitory effects"}, {"measurement": "tumor growth / tumor weight", "setting": "[3]", "value": "no effect on tumor growth or weight"}, {"measurement": "tumor weight / tumor growth", "setting": "[2]; [6]", "value": "ineffective"}]}
{"smiles": "CCc1c2c(nc3ccc(OC(=O)N4CCC(N5CCCCC5)CC4)cc13)-c1cc3c(c(=O)n1C2)COC(=O)[C@]3(O)CC", "note": "[CPT-11, Irinotecan, reference compound]", "values": [{"measurement": "tumor weight / tumor growth", "setting": "[4]; FIG. 13B, CPT-11 20 mg/kg i.p. 5 days, stopped day 32", "value": "inhibitory effects"}]}
{"smiles": "O=C1c2c(O)ccc(O)c2C(=O)c2c(NCCNCCO)ccc(NCCNCCO)c21", "note": "[mitoxantrone, reference compound]", "values": [{"measurement": "tumor weight / tumor growth", "setting": "[5]; lower panel FIG. 2, SEQ ID NO:1 10 mg/kg every other day 14 times, mitoxantrone 0.8 mg/kg once a week for four weeks", "value": "delay of tumor growth"}, {"measurement": "tumor weight / tumor growth", "setting": "[5]; upper panel FIG. 2, SEQ ID NO:1 10 mg/kg every other day 15 times, mitoxantrone 2 mg/kg i.v. once, vs saline", "value": "inhibitory effects"}]}
{"smiles": "CO[C@@]12[C@H](COC(N)=O)C3=C(C(=O)C(C)=C(N)C3=O)N1C[C@@H]1N[C@@H]12", "note": "[mitomycin C, reference compound]", "values": [{"measurement": "tumor weight / tumor growth", "setting": "[4]; FIG. 13A, mitomycin C 3.5 mg/kg/week i.v., stopped day 22", "value": "inhibitory effects"}]}
